Laboratory results from PMC6393386 (Frontiers in Pharmacology, 2019).

Columns and labels:
[1] = target: T1, Smo (smoothened), wild type hSmo (Homo sapiens, UniProt Q99835); test: BODIPY-cyclopamine competition in hSmo-transfected HEK293 cells (microscopy and flow cytometry); format: cell-based
T1 construct: wild type hSmo expressed in HEK293 cells

[2] = target: T1, Smo (smoothened), wild type hSmo; test: BODIPY-cyclopamine competition in hSmo-transfected HEK293 cells (positive control); format: cell-based

T1 sequence (Q99835 28-787): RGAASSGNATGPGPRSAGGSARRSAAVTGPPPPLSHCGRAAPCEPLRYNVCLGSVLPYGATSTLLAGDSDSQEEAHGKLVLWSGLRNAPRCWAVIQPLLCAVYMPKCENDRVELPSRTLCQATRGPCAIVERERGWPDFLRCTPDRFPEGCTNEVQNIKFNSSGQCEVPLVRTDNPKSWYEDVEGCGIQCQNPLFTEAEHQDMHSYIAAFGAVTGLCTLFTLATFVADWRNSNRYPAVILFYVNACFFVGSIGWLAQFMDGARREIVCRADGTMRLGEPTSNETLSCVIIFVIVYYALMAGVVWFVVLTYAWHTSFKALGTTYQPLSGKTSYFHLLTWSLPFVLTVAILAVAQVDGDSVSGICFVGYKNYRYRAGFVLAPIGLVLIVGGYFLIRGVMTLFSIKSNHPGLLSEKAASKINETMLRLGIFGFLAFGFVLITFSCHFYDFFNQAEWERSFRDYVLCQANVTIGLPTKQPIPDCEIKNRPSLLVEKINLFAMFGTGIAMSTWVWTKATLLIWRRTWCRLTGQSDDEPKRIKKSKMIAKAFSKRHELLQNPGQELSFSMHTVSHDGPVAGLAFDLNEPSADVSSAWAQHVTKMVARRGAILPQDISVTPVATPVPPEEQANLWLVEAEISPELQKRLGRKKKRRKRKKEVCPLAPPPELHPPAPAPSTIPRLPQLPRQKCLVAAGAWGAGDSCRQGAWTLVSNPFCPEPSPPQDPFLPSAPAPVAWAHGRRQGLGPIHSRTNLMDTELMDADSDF

| Compound | BODIPY-cyclopamine competition in hSmo-transfected HEK293 cells (microscopy and) [1] | BODIPY-cyclopamine competition in hSmo-transfected HEK293 cells (positive contro) [2] |
| --- | --- | --- |
| Cc1c(-c2ccnn2C)nnc(N2CCC(NC(=O)c3ccc(F)cc3C(F)(F)F)CC2)c1C [L-4] | there was a dose-dependent replacement of BODIPY-cyclopamine by L-4 |  |
| CC1=C2C[C@H]3[C@@H](CC=C4C[C@@H](O)CC[C@@]43C)[C@@H]2CC[C@]12O[C@@H]1C[C@H](C)CN[C@H]1[C@H]2C [cyclopamine] |  | It was similar to the positive control, cyclopamine |
